From PubChem BioAssay AID2060899 (Molecular Pharmacology Branch, DTP, NCI, 2025)

Tested on: 565726-208-R1-J5-PDC complex spheroids, growth inhibition
Test: Anticancer human tumor 565726-208-R1-J5-PDC patient-derived pancreatic adenocarcinoma cell line growth inhibition [RAS]
Conditions: for IC50: curve of first compound; for viability, T/C: stronger effect = lower value
Outline: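 Tumour cells grown as complex spheroids with HUVEC endothelial cells and mesenchymal stem cells, treated with RAS pathway inhibitor combinations. Each agent spans half-log steps from near clinical Cmax, or 10 microM where Cmax is unknown.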

[1] = second compound 0.000949 µM, first compound 0.00316 µM
[2] = second compound 0.000949 µM, first compound 0.01 µM
[3] = second compound 0.000949 µM, first compound 0.0316 µM
[4] = second compound 0.000949 µM, first compound 0.1 µM
[5] = second compound 0.000949 µM, first compound 0.316 µM
[6] = second compound 0.000949 µM, first compound 1 µM
[7] = second compound 0.003 µM, first compound 0.00316 µM
[8] = second compound 0.003 µM, first compound 0.01 µM
[9] = second compound 0.003 µM, first compound 0.0316 µM
[10] = second compound 0.003 µM, first compound 0.1 µM
[11] = second compound 0.003 µM, first compound 0.316 µM
[12] = second compound 0.003 µM, first compound 1 µM
[13] = second compound 0.00949 µM, first compound 0.00316 µM
[14] = second compound 0.00949 µM, first compound 0.01 µM
[15] = second compound 0.00949 µM, first compound 0.0316 µM
[16] = second compound 0.00949 µM, first compound 0.1 µM
[17] = second compound 0.00949 µM, first compound 0.316 µM
[18] = second compound 0.00949 µM, first compound 1 µM
[19] = second compound 0.03 µM, first compound 0.00316 µM
[20] = second compound 0.03 µM, first compound 0.01 µM
[21] = second compound 0.03 µM, first compound 0.0316 µM
[22] = second compound 0.03 µM, first compound 0.1 µM
[23] = second compound 0.03 µM, first compound 0.316 µM
[24] = second compound 0.03 µM, first compound 1 µM
[25] = second compound 0.0949 µM, first compound 0.00316 µM
[26] = second compound 0.0949 µM, first compound 0.01 µM
[27] = second compound 0.0949 µM, first compound 0.0316 µM
[28] = second compound 0.0949 µM, first compound 0.1 µM
[29] = second compound 0.0949 µM, first compound 0.316 µM
[30] = second compound 0.0949 µM, first compound 1 µM
[31] = second compound 0.3 µM, first compound 0.00316 µM
[32] = second compound 0.3 µM, first compound 0.01 µM
[33] = second compound 0.3 µM, first compound 0.0316 µM
[34] = second compound 0.3 µM, first compound 0.1 µM
[35] = second compound 0.3 µM, first compound 0.316 µM
[36] = second compound 0.3 µM, first compound 1 µM
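Also: spheroids exposed to compounds for seven days before readout.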
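For viability, T/C in this document: 100% = DMSO vehicle control viability.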

Compound: C=CC(=O)N1CCN(c2nc(OCC3CCCN3C)nc3c(F)c(-c4nc(N)cc(C)c4C(F)(F)F)c(Cl)cc23)C(C)C1 (stereo not drawn) + CCn1c(-c2cc(N3CCN(C)CC3)cnc2C(C)OC)c2c3cc(ccc31)-c1csc(n1)CC(NC(=O)C1CC1C)C(=O)N1CCCC(N1)C(=O)OCC(C)(C)C2
- IC50 (second compound 0.000949 µM): > 1000 nM
- IC50 (second compound 0.003 µM): 6.29 nM
- IC50 (second compound 0.00949 µM): < 3.16 nM
- IC50 (second compound 0.03 µM): < 3.16 nM
- IC50 (second compound 0.0949 µM): < 3.16 nM
- IC50 (second compound 0.3 µM): < 3.16 nM
- viability, T/C [1]: 63.5%
- viability, T/C [2]: 59.2%
- viability, T/C [3]: 61.2%
- viability, T/C [4]: 63.1%
- viability, T/C [5]: 62.5%
- viability, T/C [6]: 57.9%
- viability, T/C [7]: 50.9%
- viability, T/C [8]: 43.8%
- viability, T/C [9]: 53.3%
- viability, T/C [10]: 51.4%
- viability, T/C [11]: 50.5%
- viability, T/C [12]: 43.5%
- viability, T/C [13]: 40.5%
- viability, T/C [14]: 39.7%
- viability, T/C [15]: 34%
- viability, T/C [16]: 41.8%
- viability, T/C [17]: 39.9%
- viability, T/C [18]: 34.1%
- viability, T/C [19]: 29%
- viability, T/C [20]: 32.3%
- viability, T/C [21]: 29.9%
- viability, T/C [22]: 31.7%
- viability, T/C [23]: 34.5%
- viability, T/C [24]: 29.4%
- viability, T/C [25]: 23.1%
- viability, T/C [26]: 27.1%
- viability, T/C [27]: 25.5%
- viability, T/C [28]: 27.5%
- viability, T/C [29]: 29.2%
- viability, T/C [30]: 24.3%
- viability, T/C [31]: 22.6%
- viability, T/C [32]: 22.1%
- viability, T/C [33]: 23.2%
- viability, T/C [34]: 22.1%
- viability, T/C [35]: 25.6%
- viability, T/C [36]: 22.6%

Compound: CC1(C)CCC(Nc2ncc(C(F)(F)F)c(-c3c[nH]c4c(P(C)(C)=O)c(C#N)ccc34)n2)CN1 (stereo not drawn) + CCn1c(-c2cc(N3CCN(C)CC3)cnc2C(C)OC)c2c3cc(ccc31)-c1csc(n1)CC(NC(=O)C1CC1C)C(=O)N1CCCC(N1)C(=O)OCC(C)(C)C2
- IC50 (second compound 0.000949 µM): 1.34 nM
- IC50 (second compound 0.003 µM): < 0.949 nM
- IC50 (second compound 0.00949 µM): < 0.949 nM
- IC50 (second compound 0.03 µM): < 0.949 nM
- IC50 (second compound 0.0949 µM): < 0.949 nM
- IC50 (second compound 0.3 µM): < 0.949 nM
- viability, T/C (second compound 0.000949 µM, first compound 0.000949 µM): 54.4%
- viability, T/C (second compound 0.000949 µM, first compound 0.003 µM): 41.2%
- viability, T/C (second compound 0.000949 µM, first compound 0.00949 µM): 30.8%
- viability, T/C (second compound 0.000949 µM, first compound 0.03 µM): 31.5%
- viability, T/C (second compound 0.000949 µM, first compound 0.0949 µM): 31.6%
- viability, T/C (second compound 0.000949 µM, first compound 0.3 µM): 34.4%
- viability, T/C (second compound 0.003 µM, first compound 0.000949 µM): 46.8%
- viability, T/C (second compound 0.003 µM, first compound 0.003 µM): 40.3%
- viability, T/C (second compound 0.003 µM, first compound 0.00949 µM): 38.4%
- viability, T/C (second compound 0.003 µM, first compound 0.03 µM): 28.9%
- viability, T/C (second compound 0.003 µM, first compound 0.0949 µM): 32.6%
- viability, T/C (second compound 0.003 µM, first compound 0.3 µM): 29.9%
- viability, T/C (second compound 0.00949 µM, first compound 0.000949 µM): 37.3%
- viability, T/C (second compound 0.00949 µM, first compound 0.003 µM): 36.1%
- viability, T/C (second compound 0.00949 µM, first compound 0.00949 µM): 30.4%
- viability, T/C (second compound 0.00949 µM, first compound 0.03 µM): 30.7%
- viability, T/C (second compound 0.00949 µM, first compound 0.0949 µM): 28.1%
- viability, T/C (second compound 0.00949 µM, first compound 0.3 µM): 28.7%
- viability, T/C (second compound 0.03 µM, first compound 0.000949 µM): 30%
- viability, T/C (second compound 0.03 µM, first compound 0.003 µM): 30.9%
- viability, T/C (second compound 0.03 µM, first compound 0.00949 µM): 26.4%
- viability, T/C (second compound 0.03 µM, first compound 0.03 µM): 25.5%
- viability, T/C (second compound 0.03 µM, first compound 0.0949 µM): 28.5%
- viability, T/C (second compound 0.03 µM, first compound 0.3 µM): 26%
- viability, T/C (second compound 0.0949 µM, first compound 0.000949 µM): 24.8%
- viability, T/C (second compound 0.0949 µM, first compound 0.003 µM): 27.1%
- viability, T/C (second compound 0.0949 µM, first compound 0.00949 µM): 26.1%
- viability, T/C (second compound 0.0949 µM, first compound 0.03 µM): 24%
- viability, T/C (second compound 0.0949 µM, first compound 0.0949 µM): 26.8%
- viability, T/C (second compound 0.0949 µM, first compound 0.3 µM): 23.8%
- viability, T/C (second compound 0.3 µM, first compound 0.000949 µM): 22.5%
- viability, T/C (second compound 0.3 µM, first compound 0.003 µM): 23.4%
- viability, T/C (second compound 0.3 µM, first compound 0.00949 µM): 22.8%
- viability, T/C (second compound 0.3 µM, first compound 0.03 µM): 22.4%
- viability, T/C (second compound 0.3 µM, first compound 0.0949 µM): 25.4%
- viability, T/C (second compound 0.3 µM, first compound 0.3 µM): 21.9%

Compound: C=CC(=O)Nc1cc(Nc2nccc(-c3cn(C)c4ccccc34)n2)c(OC)cc1N(C)CCN(C)C + CCn1c(-c2cccnc2C(C)OC)c2c3cc(ccc31)N1CCOC(CC(NC(=O)C(C(C)C)N(C)C(=O)C3(F)CCN(C(=O)C#CC(C)(C)N(C)C)CC3)C(=O)N3CCCC(N3)C(=O)OCC(C)(C)C2)C1
- IC50 (second compound 0.000949 µM): > 1000 nM
- IC50 (second compound 0.003 µM): > 1000 nM
- IC50 (second compound 0.00949 µM): > 1000 nM
- IC50 (second compound 0.03 µM): > 1000 nM
- IC50 (second compound 0.0949 µM): > 1000 nM
- IC50 (second compound 0.3 µM): > 1000 nM
- viability, T/C [1]: 98.1%
- viability, T/C [2]: 87.7%
- viability, T/C [3]: 93.8%
- viability, T/C [4]: 79.7%
- viability, T/C [5]: 78.8%
- viability, T/C [6]: 65.2%
- viability, T/C [7]: 93.4%
- viability, T/C [8]: 91%
- viability, T/C [9]: 89%
- viability, T/C [10]: 77.1%
- viability, T/C [11]: 76.4%
- viability, T/C [12]: 57%
- viability, T/C [13]: 99.1%
- viability, T/C [14]: 91.6%
- viability, T/C [15]: 83.3%
- viability, T/C [16]: 73.3%
- viability, T/C [17]: 78%
- viability, T/C [18]: 55.8%
- viability, T/C [19]: 105%
- viability, T/C [20]: 107%
- viability, T/C [21]: 94%
- viability, T/C [22]: 81.9%
- viability, T/C [23]: 83.3%
- viability, T/C [24]: 62.2%
- viability, T/C [25]: 96%
- viability, T/C [26]: 87%
- viability, T/C [27]: 92.2%
- viability, T/C [28]: 78.8%
- viability, T/C [29]: 81.6%
- viability, T/C [30]: 60.2%
- viability, T/C [31]: 88.1%
- viability, T/C [32]: 78.3%
- viability, T/C [33]: 86.5%
- viability, T/C [34]: 72.7%
- viability, T/C [35]: 70.8%
- viability, T/C [36]: 55.7%

Compound: O=C(c1ccc(F)c(F)c1Nc1ccc(I)cc1F)N1CC(O)([C@@H]2CCCCN2)C1 + CCn1c(-c2cccnc2C(C)OC)c2c3cc(ccc31)N1CCOC(CC(NC(=O)C(C(C)C)N(C)C(=O)C3(F)CCN(C(=O)C#CC(C)(C)N(C)C)CC3)C(=O)N3CCCC(N3)C(=O)OCC(C)(C)C2)C1
- IC50 (second compound 0.000949 µM): 161 nM
- IC50 (second compound 0.003 µM): 130 nM
- IC50 (second compound 0.00949 µM): 160 nM
- IC50 (second compound 0.03 µM): 182 nM
- IC50 (second compound 0.0949 µM): 192 nM
- IC50 (second compound 0.3 µM): 95.7 nM
- viability, T/C [1]: 95.3%
- viability, T/C [2]: 83.2%
- viability, T/C [3]: 76.8%
- viability, T/C [4]: 55.4%
- viability, T/C [5]: 40%
- viability, T/C [6]: 17.7%
- viability, T/C [7]: 96.4%
- viability, T/C [8]: 80.4%
- viability, T/C [9]: 71.8%
- viability, T/C [10]: 53.2%
- viability, T/C [11]: 36.8%
- viability, T/C [12]: 19%
- viability, T/C [13]: 93.7%
- viability, T/C [14]: 87.3%
- viability, T/C [15]: 67.7%
- viability, T/C [16]: 57.1%
- viability, T/C [17]: 43.2%
- viability, T/C [18]: 19.9%
- viability, T/C [19]: 82.7%
- viability, T/C [20]: 82.3%
- viability, T/C [21]: 77.9%
- viability, T/C [22]: 59.5%
- viability, T/C [23]: 40.6%
- viability, T/C [24]: 19.4%
- viability, T/C [25]: 82.8%
- viability, T/C [26]: 78.8%
- viability, T/C [27]: 72.9%
- viability, T/C [28]: 57.4%
- viability, T/C [29]: 43.8%
- viability, T/C [30]: 19.8%
- viability, T/C [31]: 82.6%
- viability, T/C [32]: 71.2%
- viability, T/C [33]: 67.5%
- viability, T/C [34]: 45.9%
- viability, T/C [35]: 34.4%
- viability, T/C [36]: 13.6%
